Entries after “also recorded” stand apart in the source; their conditions may differ.
Assays:
[1] = target: T1, Porcn (Homo sapiens, UniProt Q9H237); assay: Click chemistry labeling of Wnt3A-Fc with alkynyl-PA (Wnt fatty acylation); assay type: cell-based
T1 construct: endogenous in cells; host or cells: HEK293
T1 sequence (Q9H237 1-461): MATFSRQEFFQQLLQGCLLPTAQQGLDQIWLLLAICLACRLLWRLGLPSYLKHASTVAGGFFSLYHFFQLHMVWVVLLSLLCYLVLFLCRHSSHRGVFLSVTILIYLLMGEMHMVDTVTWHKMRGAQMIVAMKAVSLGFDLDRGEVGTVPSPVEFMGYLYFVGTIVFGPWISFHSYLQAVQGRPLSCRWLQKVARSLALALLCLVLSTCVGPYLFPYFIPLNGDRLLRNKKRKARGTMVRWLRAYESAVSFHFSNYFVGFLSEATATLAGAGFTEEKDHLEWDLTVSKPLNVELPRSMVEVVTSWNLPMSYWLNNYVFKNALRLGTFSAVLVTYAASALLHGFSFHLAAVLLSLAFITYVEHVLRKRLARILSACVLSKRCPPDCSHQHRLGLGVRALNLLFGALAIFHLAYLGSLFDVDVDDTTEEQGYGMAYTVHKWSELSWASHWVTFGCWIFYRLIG
Protocol: Click chemistry. HEK293 cells transiently transfected with the Wnt3A-Fc DNA expression construct were treated with C16 ω-alkynyl fatty acid (see Reagents; 100 μM final concentration) for six hours as previously described (9) in the presence or DMSO or various IWP compounds. C16 ω-alkynyl fatty acid-labeled Wnt3A-Fc protein isolated from cell lysate using Protein A sepharose was then subjected to a copper catalyzed alkyne-azide cycloaddition with biotin-azide with protein immobilized on the sepharose. The biotinylated Wnt protein run on SDS PAGE was detected using HRP conjugated streptavidin.

[2] = target: HHAT (Homo sapiens, UniProt Q5VTY9); assay: Click chemistry labeling of Hh protein with alkynyl-PA (Hh fatty acylation); assay type: cell-based
[3] = system: Wnt1-GFP; assay: Organotypic embryonic kidney culture from Wnt1-GFP mice; assay type: cell-based
Protocol: Organotypic kidney culture. E11.5 urogenital systems were removed and bisected in sterile phosphate buffered saline (PBS) and then the individual halves were cultured in […] of media at the air-media interface on 24-well tissue culture treated, 6.5 mm diameter, […] pore size Transwell filters (Corning, catalog no. 3422). The media (DMEM with 10% fetal bovine serum (FBS) and Pen/Strep) was supplemented with either DMSO or IWP2 and replaced with fresh media every 12, 24, or 48 hours. All treatments were repeated at least three times with a minimum of six individual kidneys from six distinct embryos each time.

[4] = system: Wnt-GL fusion proteins; assay: Wnt-Gaussia luciferase secretion assay in HEK293 cells; assay type: cell-based; conditions: HEK293 cells expressing one of several Wnt-GL proteins
Protocol: (§1) Luciferase reporter assays. Wnt-Gaussia luciferase secretion and SuperTopFlash assays were conducted as described using a Dual Luciferase kit (Promega) (Chen et al., 2009).

[5] = system: Wnt5A; assay: Wnt5A-dependent antagonism of Wnt/β-catenin signaling, STF reporter in HEK293 cells; assay type: cell-based; conditions: Wnt3A-containing conditioned medium
Protocol: as §1

[6] = system: Jnk; assay: Wnt7B-induced Jnk phosphorylation in L fibroblasts; assay type: cell-based, Mouse; conditions: L fibroblasts transfected with Wnt7B DNA
[7] = system: Dv12; assay: Dv12 phosphorylation in HeLa cells (Western blot); assay type: cell-based; conditions: cell-autonomous Wnt signaling
[8] = system: general protein secretion; conditions: previously demonstrated (Chen et al., 2009); cited from earlier work
[9] = system: Hh; conditions: previously demonstrated (Chen et al., 2009); cited from earlier work
[10] = system: Notch; conditions: previously demonstrated (Chen et al., 2009); cited from earlier work
[11] = system: Wnt/β-catenin pathway; assay: Wnt-responsive EGFP reporter in transgenic zebrafish embryos (7XTCF-siam:EGFP); assay type: in vivo; conditions: for Wnt signaling activity (EGFP reporter): embryos treated from 4 hpf for 20 hours, compound in medium
[12] = system: Wnt/β-catenin pathway; assay: Wnt reporter GFP in cultured zebrafish primary embryonic fibroblasts; assay type: cell-based; conditions: fibroblasts from 6 hpf embryos, GFP visualized 20 hrs later
Source text: Zebrafish embryonic cell cultures were initiated from embryos at the shield stage (6 hpf). The embryos were dissociated in trypsin/EDTA solution with gentle homogenization and pipetting. After centrifugation, the collected cells were resuspended in F12/L15/DMEM medium and placed into a 24-well tissue culture plate.

[13] = system: tailfin regeneration; assay: Caudal fin regeneration assay in zebrafish larvae; assay type: in vivo; conditions: larvae resected at 3 days post fertilization, IWP12 50 μM, 4 days
[14] = system: Wnt-planar cell polarity (Wnt/PCP) signaling; assay: Convergence and extension gastrulation movements, whole mount in situ hybridization; assay type: in vivo, zebrafish; conditions: embryos treated starting 4 hpf
[15] = system: Engrailed (eng1a); assay: eng1a expression at the midbrain/hindbrain boundary, in situ hybridization; assay type: in vivo, zebrafish; conditions: embryos (4 hpf) treated for 20 hours
[16] = system: fin regrowth; assay: Resumption of caudal fin regrowth after removal of compound; assay type: in vivo, zebrafish; conditions: resected caudal fins, water containing IWR-1 for 7 d, then removal
Source text: Achieving transient repression of pathological Wnt response without incurring permanent damage to normal stem cell function is a key anticancer therapeutic goal.

[17] = system: Axin2; assay: Axin2 expression in DLD-1 cells; assay type: cell-based; conditions: exposure for 2 h
Source text: Aberrant transcriptional induction of Wnt/β-catenin target genes is typically observed in CRC cells that harbor loss-of-function mutations in the APC tumor suppressor.

Sequence of HHAT (Q5VTY9 whole entry, species assumed): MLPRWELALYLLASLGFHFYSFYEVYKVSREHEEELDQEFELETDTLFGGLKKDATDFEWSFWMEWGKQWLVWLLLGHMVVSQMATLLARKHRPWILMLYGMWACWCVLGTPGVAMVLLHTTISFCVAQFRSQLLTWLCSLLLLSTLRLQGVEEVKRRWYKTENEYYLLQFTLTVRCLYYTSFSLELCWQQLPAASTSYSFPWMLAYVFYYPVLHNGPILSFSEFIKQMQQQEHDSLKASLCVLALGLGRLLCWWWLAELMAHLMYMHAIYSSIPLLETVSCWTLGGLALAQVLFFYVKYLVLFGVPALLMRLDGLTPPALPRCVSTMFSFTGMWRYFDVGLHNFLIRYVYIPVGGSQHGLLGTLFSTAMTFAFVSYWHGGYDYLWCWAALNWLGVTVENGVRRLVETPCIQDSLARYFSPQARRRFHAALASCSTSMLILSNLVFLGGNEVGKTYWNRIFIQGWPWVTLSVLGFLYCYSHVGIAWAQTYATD

SMILES | Wnt protein acylation [1] | fatty acylation of Hh mediated by Hhat [2] | tubule induction ([3]; E11.5 embryonic kidney culture, Wnt/β-catenin-dependent process) | accumulation of Wnt1 on the cell surface ([3]; E11.5 embryonic kidney, treated in vitro for 24 hours) | accumulation of Wnt proteins in the cell culture medium [4] | production of non-canonical Wnt (Wnt5A) [5] | activation (phosphorylation) of Jnk [6] | Dv12 phosphorylation [7] | general protein secretion [8] | cellular responses mediated by Hh [9] | cellular responses mediated by Notch [10] | excess of IWP12 equivalent in activity to IWR1 ([11]; EGFP reporter fluorescence, posterior region) | Wnt signaling activity (EGFP reporter) [11] | posterior body morphogenesis ([11]; zebrafish embryos) | Wnt/β-catenin pathway response (GFP) [12] | tailfin regeneration following resection [13] | convergence and extension gastrulation movements [14] | expression of MHB marker Engrailed (eng1a) [15] | fin tissue regeneration after chemical removal [16] | expression of Axin2 [17]
Cc1ccc2nc(NC(=O)CSc3nc4c(c(=O)n3-c3ccccc3)SCC4)sc2c1 [IWP2] | disrupts Wnt protein acylation | does not block fatty acylation | disrupt tubule induction | block the accumulation of Wnt1 on the cell surface | abrogated the accumulation of Wnt proteins in the cell culture medium | inhibits the production of a non-canonical Wnt (Wnt5A) | disrupted | inhibits Dv12 phosphorylation | does not block | does not block | does not block | – | – | – | – | – | – | – | – | –
Cc1ccc2nc(NC(=O)CSc3nc4c(c(=O)n3C)SC(C)C4)sc2c1 (stereo not drawn) [IWP12] | – | – | – | – | – | – | – | – | – | – | – | approximately 10 fold | loss of Wnt signaling activity; also recorded: Dose-dependent effects | severe effect on posterior body morphogenesis | loss of Wnt/β-catenin pathway responses | block juvenile fish tailfin regeneration | block convergence and extension gastrulation movements | decreased expression of the MHB marker Engrailed (eng1a) | – | –
O=C(Nc1cccc2cccnc12)c1ccc(N2C(=O)[C@@H]3[C@H](C2=O)[C@@H]2C=C[C@H]3C2)cc1 [IWR1] | – | – | – | – | – | – | – | – | – | – | – | – | Dose-dependent effects | – | – | – | – | – | able to regenerate tissue to nearly normal levels after chemical removal | a decrease in the expression of Axin2
